Data as given in US20100204275A1 (published 2010).
Counter-ions that a name gives are not always drawn.

melting point [°C]	SMILES
168 to 170	CCC(=O)N(CC1CCNCC1)c1ccc2cc(OC)ccc2c1.O=C(O)C(F)(F)F
151 to 153	CCC(=O)N(CC1CCNCC1)c1ccc2cc(OCc3ccccc3)ccc2c1.O=C(O)C(F)(F)F
94 to 96	CCC(=O)N(CC1CCNCC1)c1cccc(Cl)c1 (as salt: salt)
115 to 117	COCC(=O)N(CC1CCNCC1)c1ccc(Cl)c(Cl)c1 (as salt: salt)
98 to 100	CCC(=O)N(CC1CCNCC1)c1ccccc1 (as salt: trifluoroacetic acid salt)
108 to 110	CCC(=O)N(CC1CCNCC1)c1ccccn1 (as salt: trifluoroacetic acid salt)
134 to 136	CCC(=O)N(CC1CCNCC1)c1ccc(Cl)cn1 (as salt: trifluoroacetic acid salt)
172 to 174	CC(=O)N(CC1CCNCC1)c1ccc(Cl)c(Cl)c1 (as salt: trifluoroacetic acid salt)
